Measurements as given in patent US6949383B2 (priority 1998, dated 2005).

Experiments:
Assay type in all cases: cell-based, Escherichia coli
[1] = system: dnaQ
[2] = system: Wild-Type
[3] = system: Super-Oflo.-resisting dnaQ; assay: Minimum growth inhibiting concentration (MIC) of antibiotic substances
[4] = system: dnaQ49 strain; assay: Drug resistance reached by repeated mutagenesis and selection (Example 2)

`CC1COc2c(N3CCN(C)CC3)c(F)cc3c(=O)c(C(=O)O)cn1c23` (centres unmarked) [Ofloxacin] was tested, and the “Minimum growth inhibiting concentration (MIC)” value [1] was 0.0156, the “Minimum growth inhibiting concentration (MIC)” value [2] was 0.0625 and the “Minimum growth inhibiting concentration (MIC)” value [3] was 1024. For the same compound, the “Concentration of Ofloxacin” value ([4]; mutagenesis treatment for 1 time) was 0.001 µg/mL, the “Concentration of Ofloxacin” value ([4]; mutagenesis treatments for 2 times) was 0.01 µg/mL and the “Concentration of Ofloxacin” value ([4]; mutagenesis treatments for 3 times) was 0.1 µg/mL. For the same compound, the “Concentration of Ofloxacin” value ([4]; mutagenesis treatments for 4 times) was 1 µg/mL, the “Concentration of Ofloxacin” value ([4]; mutagenesis treatments for 5 times) was 10 µg/mL and the “Concentration of Ofloxacin” value ([4]; mutagenesis treatments for 6 times) was 30 µg/mL. The “Concentration of Ofloxacin” value ([4]; mutagenesis treatments for 7 times) was 50 µg/mL, the “Concentration of Ofloxacin” value ([4]; mutagenesis treatments for 8 times) was 60 µg/mL and the “Concentration of Ofloxacin” value ([4]; mutagenesis treatments for 9 times) was 70 µg/mL. For the same compound, the “Concentration of Ofloxacin” value ([4]; mutagenesis treatments for 10 times) was 80 µg/mL, the “Concentration of Ofloxacin” value ([4]; mutagenesis treatments for 11 times) was 90 µg/mL and the “Concentration of Ofloxacin” value ([4]; mutagenesis treatments for 12 times) was 100 µg/mL. The “Concentration of Ofloxacin” value ([4]; mutagenesis treatments for 13 times) was 120 µg/mL, the “Concentration of Ofloxacin” value ([4]; mutagenesis treatments for 14 times) was 132 µg/mL and the “Concentration of Ofloxacin” value ([4]; mutagenesis treatments for 15 times) was 144 µg/mL. The “Concentration of Ofloxacin” value ([4]; mutagenesis treatments for 16 times) was 150 µg/mL, the “Concentration of Ofloxacin” value ([4]; mutagenesis treatments for 17 times) was 156 µg/mL and the “Concentration of Ofloxacin” value ([4]; mutagenesis treatments for 18 times) was 168 µg/mL. The “Concentration of Ofloxacin” value ([4]; mutagenesis treatments for 19 times) was 180 µg/mL, the “Concentration of Ofloxacin” value ([4]; mutagenesis treatments for 20 times) was 210 µg/mL and the “Concentration of Ofloxacin” value ([4]; mutagenesis treatments for 21 times) was 240 µg/mL. For the same compound, the “Concentration of Ofloxacin” value ([4]; mutagenesis treatments for 22 times) was 270 µg/mL, the “Concentration of Ofloxacin” value ([4]; mutagenesis treatments for 23 times) was 300 µg/mL and the “Concentration of Ofloxacin” value ([4]; mutagenesis treatments for 24 times) was 320 µg/mL. The “Concentration of Ofloxacin” value ([4]; mutagenesis treatments for 25 times) was 330 µg/mL, the “Concentration of Ofloxacin” value ([4]; mutagenesis treatments for 26 times) was 340 µg/mL and the “Concentration of Ofloxacin” value ([4]; mutagenesis treatments for 27 times) was 350 µg/mL. The “Concentration of Ofloxacin” value ([4]; mutagenesis treatments for 28 times) was 360 µg/mL, the “Concentration of Ofloxacin” value ([4]; mutagenesis treatments for 29 times) was 370 µg/mL and the “Concentration of Ofloxacin” value ([4]; mutagenesis treatments for 30 times) was 380 µg/mL. The “Concentration of Ofloxacin” value ([4]; mutagenesis treatments for 31 times) was 400 µg/mL, the “Concentration of Ofloxacin” value ([4]; mutagenesis treatments for 32 times) was 425 µg/mL and the “Concentration of Ofloxacin” value ([4]; mutagenesis treatments for 33 times) was 450 µg/mL. For the same compound, the “Concentration of Ofloxacin” value ([4]; mutagenesis treatments for 34 times) was 475 µg/mL and the “Concentration of Ofloxacin” value ([4]; mutagenesis treatments for 35 times) was 500 µg/mL.
